“And” between values parts separate entries of the source, which are not always exact repeats. Identical values can stand only once. Inconclusive results and toxic doses are left out. No stated cut-off is given here; in the data, active means T/C of 150% or more; inactive means T/C below 125%.
System: L1210 leukemia ip in BDF1 mice, survival T/C
Assay: NCI In Vivo Anticancer Drug Screen. Data for tumor model L1210 Leukemia (intraperitoneal) in B6D2F1 (BDF1) mice
Conditions: higher = longer survival
Method in brief: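 Tumor was transplanted into mice, which were then dosed with test compound or vehicle alone. Survival was recorded for each group, and the treated figure was expressed relative to the control figure.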

Measured: T/C

O=C1CN=C(c2ccc[nH]2)c2cc(Cl)ccc2N1
active: endpoint: mean survival time, dose: 50.0 mg/kg/injection, schedule: Q01DX Z (ip), vehicle: carboxymethylcellulose (CMC) 155 % of control | endpoint: mean survival time, dose: 50.0 mg/kg/injection, schedule: Q03HX024 (ip), vehicle: other 150 % of control | endpoint: mean survival time, dose: 75.0 mg/kg/injection, schedule: Q01DX Z (ip), vehicle: carboxymethylcellulose (CMC) 174 % of control | endpoint: mean survival time, dose: 112.0 mg/kg/injection, schedule: Q01DX015 (ip), vehicle: other 158 % of control | endpoint: mean survival time, dose: 112.5 mg/kg/injection, schedule: Q01DX Z (ip), vehicle: carboxymethylcellulose (CMC) 170 % of control | endpoint: mean survival time, dose: 180.0 mg/kg/injection, schedule: Q01DX009 (ip), vehicle: other 155 % of control | endpoint: median survival time, dose: 400.0 mg/kg/injection, schedule: Q01DX009 (ip), vehicle: steriod suspending solution 150 % of control
inactive: endpoint: mean survival time, dose: 1.56 mg/kg/injection, schedule: Q03HX008 (oral), vehicle: saline with Tween-80 98 % of control | endpoint: mean survival time, dose: 1.56 mg/kg/injection, schedule: Q03HX016 (oral), vehicle: saline with Tween-80 103 % of control | endpoint: mean survival time, dose: 1.56 mg/kg/injection, schedule: Q03HX024 (oral), vehicle: saline with Tween-80 98 % of control | endpoint: mean survival time, dose: 3.12 mg/kg/injection, schedule: Q03HX008 (oral), vehicle: saline with Tween-80 97 % of control | endpoint: mean survival time, dose: 3.12 mg/kg/injection, schedule: Q03HX016 (oral), vehicle: saline with Tween-80 102 % of control | endpoint: mean survival time, dose: 3.12 mg/kg/injection, schedule: Q03HX024 (oral), vehicle: saline with Tween-80 100 % of control | endpoint: mean survival time, dose: 6.25 mg/kg/injection, schedule: Q03HX008 (oral), vehicle: saline with Tween-80 98 % of control | endpoint: mean survival time, dose: 6.25 mg/kg/injection, schedule: Q03HX016 (ip), vehicle: other 105 % of control | endpoint: mean survival time, dose: 6.25 mg/kg/injection, schedule: Q03HX016 (oral), vehicle: saline with Tween-80 98 % of control | endpoint: mean survival time, dose: 6.25 mg/kg/injection, schedule: Q03HX024 (ip), vehicle: other 114 % of control | endpoint: mean survival time, dose: 6.25 mg/kg/injection, schedule: Q03HX024 (oral), vehicle: saline with Tween-80 97 % of control | endpoint: mean survival time, dose: 7.13 mg/kg/injection, schedule: Q01DX009 (ip), vehicle: clinical formulation 102 % of control | endpoint: mean survival time, dose: 12.5 mg/kg/injection, schedule: Q03HX008 (oral), vehicle: saline with Tween-80 102 % of control | endpoint: mean survival time, dose: 12.5 mg/kg/injection, schedule: Q03HX016 (ip), vehicle: other 104 % of control | endpoint: mean survival time, dose: 12.5 mg/kg/injection, schedule: Q03HX016 (oral), vehicle: saline with Tween-80 97 % of control | endpoint: mean survival time, dose: 12.5 mg/kg/injection, schedule: Q03HX024 (ip), vehicle: other 114 % of control | endpoint: mean survival time, dose: 12.5 mg/kg/injection, schedule: Q03HX024 (oral), vehicle: saline with Tween-80 101 % of control | endpoint: mean survival time, dose: 14.2 mg/kg/injection, schedule: Q01DX009 (ip), vehicle: clinical formulation 103 % of control | endpoint: mean survival time, dose: 25.0 mg/kg/injection, schedule: Q01DX006 (iv), vehicle: other 100 % of control | endpoint: mean survival time, dose: 25.0 mg/kg/injection, schedule: Q03HX008 (oral), vehicle: saline with Tween-80 100 % of control and 101 % of control | endpoint: mean survival time, dose: 25.0 mg/kg/injection, schedule: Q03HX016 (ip), vehicle: other 112 % of control | endpoint: mean survival time, dose: 25.0 mg/kg/injection, schedule: Q03HX016 (oral), vehicle: saline with Tween-80 95 % of control and 103 % of control | endpoint: mean survival time, dose: 25.0 mg/kg/injection, schedule: Q03HX024 (oral), vehicle: saline with Tween-80 95 % of control and 98 % of control | endpoint: mean survival time, dose: 33.0 mg/kg/injection, schedule: Q01DX015 (ip), vehicle: other 123 % of control | endpoint: mean survival time, dose: 33.0 mg/kg/injection, schedule: Q01DX Z (ip), vehicle: carboxymethylcellulose (CMC) 120 % of control | endpoint: mean survival time, dose: 34.0 mg/kg/injection, schedule: Q01DX009 (ip), vehicle: other 105 % of control | endpoint: mean survival time, dose: 50.0 mg/kg/injection, schedule: Q01DX001 (iv), vehicle: other 101 % of control | endpoint: mean survival time, dose: 50.0 mg/kg/injection, schedule: Q01DX006 (iv), vehicle: other 102 % of control | endpoint: mean survival time, dose: 50.0 mg/kg/injection, schedule: Q01DX009 (ip), vehicle: Klucel (hydroxypropylcellulose) (HPC) 103 % of control | endpoint: mean survival time, dose: 50.0 mg/kg/injection, schedule: Q01DX009 (ip), vehicle: water 118 % of control | endpoint: mean survival time, dose: 50.0 mg/kg/injection, schedule: Q01DX015 (ip), vehicle: other 121 % of control | endpoint: mean survival time, dose: 50.0 mg/kg/injection, schedule: Q03HX008 (oral), vehicle: saline with Tween-80 108 % of control | endpoint: mean survival time, dose: 50.0 mg/kg/injection, schedule: Q03HX016 (ip), vehicle: other 122 % of control | endpoint: mean survival time, dose: 50.0 mg/kg/injection, schedule: Q03HX016 (oral), vehicle: saline with Tween-80 112 % of control | endpoint: mean survival time, dose: 50.0 mg/kg/injection, schedule: Q03HX024 (oral), vehicle: saline with Tween-80 110 % of control | endpoint: mean survival time, dose: 50.0 mg/kg/injection, schedule: Q04DX003 (ip), vehicle: other 108 % of control | endpoint: mean survival time, dose: 50.0 mg/kg/injection, schedule: Q08DX002 (ip), vehicle: other 96 % of control | endpoint: mean survival time, dose: 52.0 mg/kg/injection, schedule: Q01DX009 (ip), vehicle: other 98 % of control | endpoint: mean survival time, dose: 80.0 mg/kg/injection, schedule: Q01DX009 (ip), vehicle: other 108 % of control | endpoint: mean survival time, dose: 100.0 mg/kg/injection, schedule: Q01DX001 (ip), vehicle: other 98 % of control | endpoint: mean survival time, dose: 100.0 mg/kg/injection, schedule: Q01DX001 (iv), vehicle: other 101 % of control | endpoint: mean survival time, dose: 100.0 mg/kg/injection, schedule: Q01DX001 (oral), vehicle: saline with Tween-80 102 % of control | endpoint: mean survival time, dose: 100.0 mg/kg/injection, schedule: Q01DX006 (iv), vehicle: other 110 % of control | endpoint: mean survival time, dose: 100.0 mg/kg/injection, schedule: Q01DX009 (ip), vehicle: Klucel (hydroxypropylcellulose) (HPC) 105 % of control | endpoint: mean survival time, dose: 100.0 mg/kg/injection, schedule: Q01DX009 (oral), vehicle: saline with Tween-80 114 % of control | endpoint: mean survival time, dose: 100.0 mg/kg/injection, schedule: Q03HX008 (oral), vehicle: saline with Tween-80 123 % of control | endpoint: mean survival time, dose: 100.0 mg/kg/injection, schedule: Q03HX024 (oral), vehicle: saline with Tween-80 121 % of control | endpoint: mean survival time, dose: 100.0 mg/kg/injection, schedule: Q04DX003 (ip), vehicle: other 105 % of control | endpoint: mean survival time, dose: 100.0 mg/kg/injection, schedule: Q04DX003 (oral), vehicle: saline with Tween-80 109 % of control | endpoint: mean survival time, dose: 100.0 mg/kg/injection, schedule: Q08DX002 (ip), vehicle: other 115 % of control | endpoint: mean survival time, dose: 100.0 mg/kg/injection, schedule: Q08DX002 (oral), vehicle: saline with Tween-80 103 % of control | endpoint: mean survival time, dose: 102.0 mg/kg/injection, schedule: Q01DX007 (oral), vehicle: other 108 % of control | endpoint: mean survival time, dose: 120.0 mg/kg/injection, schedule: Q01DX009 (ip), vehicle: other 116 % of control | endpoint: mean survival time, dose: 156.0 mg/kg/injection, schedule: Q01DX007 (oral), vehicle: other 112 % of control | endpoint: mean survival time, dose: 200.0 mg/kg/injection, schedule: Q01DX001 (ip), vehicle: other 106 % of control | endpoint: mean survival time, dose: 200.0 mg/kg/injection, schedule: Q01DX001 (iv), vehicle: other 108 % of control | endpoint: mean survival time, dose: 200.0 mg/kg/injection, schedule: Q01DX001 (oral), vehicle: saline with Tween-80 116 % of control | endpoint: mean survival time, dose: 200.0 mg/kg/injection, schedule: Q01DX009 (oral), vehicle: saline with Tween-80 109 % of control | endpoint: mean survival time, dose: 200.0 mg/kg/injection, schedule: Q04DX003 (ip), vehicle: other 114 % of control | endpoint: mean survival time, dose: 200.0 mg/kg/injection, schedule: Q04DX003 (oral), vehicle: saline with Tween-80 115 % of control | endpoint: mean survival time, dose: 200.0 mg/kg/injection, schedule: Q08DX002 (ip), vehicle: other 118 % of control | endpoint: mean survival time, dose: 200.0 mg/kg/injection, schedule: Q08DX002 (oral), vehicle: saline with Tween-80 105 % of control | endpoint: mean survival time, dose: 225.0 mg/kg/injection, schedule: Q01DX Z (ip), vehicle: carboxymethylcellulose (CMC) 86 % of control | endpoint: mean survival time, dose: 240.0 mg/kg/injection, schedule: Q01DX007 (oral), vehicle: other 119 % of control | endpoint: mean survival time, dose: 400.0 mg/kg/injection, schedule: Q01DX001 (ip), vehicle: other 112 % of control | endpoint: mean survival time, dose: 400.0 mg/kg/injection, schedule: Q01DX001 (iv), vehicle: other 109 % of control | endpoint: mean survival time, dose: 400.0 mg/kg/injection, schedule: Q01DX001 (oral), vehicle: saline with Tween-80 108 % of control | endpoint: mean survival time, dose: 400.0 mg/kg/injection, schedule: Q01DX009 (ip), vehicle: Klucel (hydroxypropylcellulose) (HPC) 109 % of control | endpoint: mean survival time, dose: 400.0 mg/kg/injection, schedule: Q01DX009 (ip), vehicle: water 108 % of control | endpoint: mean survival time, dose: 400.0 mg/kg/injection, schedule: Q01DX009 (oral), vehicle: saline with Tween-80 105 % of control | endpoint: mean survival time, dose: 400.0 mg/kg/injection, schedule: Q04DX003 (ip), vehicle: other 114 % of control | endpoint: mean survival time, dose: 400.0 mg/kg/injection, schedule: Q08DX002 (ip), vehicle: other 109 % of control | endpoint: mean survival time, dose: 400.0 mg/kg/injection, schedule: Q08DX002 (oral), vehicle: saline with Tween-80 109 % of control | endpoint: mean survival time, dose: 540.0 mg/kg/injection, schedule: Q01DX001 (oral), vehicle: other 110 % of control | endpoint: mean survival time, dose: 720.0 mg/kg/injection, schedule: Q01DX001 (oral), vehicle: other 110 % of control | endpoint: mean survival time, dose: 800.0 mg/kg/injection, schedule: Q08DX002 (oral), vehicle: saline with Tween-80 121 % of control | endpoint: median survival time, dose: 2.0 mg/kg/injection, schedule: Q03HX008 (ip), vehicle: clinical formulation 95 % of control | endpoint: median survival time, dose: 32.0 mg/kg/injection, schedule: Q04DX003 (ip), vehicle: clinical formulation 90 % of control | endpoint: median survival time, dose: 50.0 mg/kg/injection, schedule: Q01DX009 (ip), vehicle: steriod suspending solution 100 % of control | endpoint: median survival time, dose: 50.0 mg/kg/injection, schedule: Q01DX009 (sc), vehicle: steriod suspending solution 100 % of control | endpoint: median survival time, dose: 64.0 mg/kg/injection, schedule: Q01DX001 (ip), vehicle: clinical formulation 95 % of control | endpoint: median survival time, dose: 64.0 mg/kg/injection, schedule: Q04DX003 (ip), vehicle: clinical formulation 100 % of control | endpoint: median survival time, dose: 100.0 mg/kg/injection, schedule: Q01DX001 (ip), vehicle: acid diluted with saline 100 % of control | endpoint: median survival time, dose: 100.0 mg/kg/injection, schedule: Q01DX009 (ip), vehicle: steriod suspending solution 100 % of control | endpoint: median survival time, dose: 100.0 mg/kg/injection, schedule: Q01DX009 (sc), vehicle: steriod suspending solution 100 % of control | endpoint: median survival time, dose: 200.0 mg/kg/injection, schedule: Q01DX001 (ip), vehicle: acid diluted with saline 95 % of control | endpoint: median survival time, dose: 200.0 mg/kg/injection, schedule: Q01DX009 (ip), vehicle: steriod suspending solution 122 % of control | endpoint: median survival time, dose: 200.0 mg/kg/injection, schedule: Q01DX009 (sc), vehicle: steriod suspending solution 100 % of control | endpoint: median survival time, dose: 400.0 mg/kg/injection, schedule: Q01DX009 (sc), vehicle: steriod suspending solution 122 % of control | endpoint: median survival time, dose: 800.0 mg/kg/injection, schedule: Q01DX009 (ip), vehicle: steriod suspending solution 88 % of control

— PubChem BioAssay AID248 (DTP/NCI, 2004)
